This assay concerns human dermal fibroblasts. The assay can be described thus: Collagen I secretion, CODTA combined with SDA (Example 3). In kind it is cell-based. The following applies: in combination with Stearidonic Acid base; relative to diluent (vehicle) alone. The protocol:
This example provides outline results of the effect of two test active ingredient mixes on collagen I secretion by human dermal fibroblasts. Human dermal fibroblasts (originally derived from explant cultures of normal human breast dermis) were cultured under standard conditions. Two test combinations of actives (CODTA's when combined with SDA) were initially screened for cytotoxicity before testing.
Collagen I levels were determined and are expressed as a percentage of the levels observed in samples from cultures treated with diluent (vehicle) alone.
Pepsin digests of both cell culture medium, and the cell culture surface (plate) from each treated culture well were analysed.

We go through two compounds from patent US8552063B2, “Composition for accelerated production of collagen” (E.S.L.I. Limited, priority 2008, dated 2013).

On to `CCCCC\C=C/C=C/C=C\CCCCCCC(=O)O` [Jacaric Acid, Jacaric acid], for which the “Percentage increase in collagen I secretion” value is listed as 278%.

Take `CCCCC\C=C/C=C/C=C/CCCCCCC(=O)O` [Calendic Acid, Calendic acid]: the “Percentage increase in collagen I secretion” value is given as 187%.
